Experiments:
Type in all cases: cell-based
SR = test: NCI 60 cell line screen (SRB), Leukemia
BT-549 = test: NCI 60 cell line screen (SRB), Breast Cancer; conditions: BT-549 (Breast Cancer)
COLO 205 = test: NCI 60 cell line screen (SRB), Colon Cancer; conditions: COLO 205 (Colon Cancer)
SNB-19 = test: NCI 60 cell line screen (SRB), CNS Cancer; conditions: SNB-19 (CNS Cancer)
HCT-116 = test: NCI 60 cell line screen (SRB), Colon Cancer; conditions: HCT-116 (Colon Cancer)
OVCAR-4 = test: NCI 60 cell line screen (SRB), Ovarian Cancer; conditions: OVCAR-4 (Ovarian Cancer)
K-562 = test: NCI 60 cell line screen (SRB), Leukemia; conditions: K-562 (Leukemia)
HT29 = test: NCI 60 cell line screen (SRB), Colon Cancer
EKVX = test: NCI 60 cell line screen (SRB), Non-Small Cell Lung Cancer
SN12C = test: NCI 60 cell line screen (SRB), Renal Cancer
SK-MEL-5 = test: NCI 60 cell line screen (SRB), Melanoma; conditions: SK-MEL-5 (Melanoma)
786-0 = test: NCI 60 cell line screen (SRB), Renal Cancer; conditions: 786-0 (Renal Cancer)
NCI-H322M = test: NCI 60 cell line screen (SRB), Non-Small Cell Lung Cancer
SF-268 = test: NCI 60 cell line screen (SRB), CNS Cancer; conditions: SF-268 (CNS Cancer)
SF-295 = test: NCI 60 cell line screen (SRB), CNS Cancer; conditions: SF-295 (CNS Cancer)
SW-620 = test: NCI 60 cell line screen (SRB), Colon Cancer; conditions: SW-620 (Colon Cancer)
NCI-H522 = test: NCI 60 cell line screen (SRB), Non-Small Cell Lung Cancer
PC-3 = test: NCI 60 cell line screen (SRB), Prostate Cancer; conditions: PC-3 (Prostate Cancer)
MDA-MB-435 = test: NCI 60 cell line screen (SRB), Breast Cancer; conditions: MDA-MB-435 (Breast Cancer)
HCC-2998 = test: NCI 60 cell line screen (SRB), Colon Cancer; conditions: HCC-2998 (Colon Cancer)
[1] = tested on: murine keratinocyte cell line PE; test: Growth inhibition of PE cells (MTT assay); conditions: murine keratinocytes, FIGS. 1-9
Procedure: To determine the inhibitory effect of the trioxane dimers of the present invention on cell proliferation, screening assays were performed on a murine keratinocyte cell line PE. […] PE cell culture medium consisted of Eagle's minimal essential medium without calcium chloride (Whittaker Bioproducts, Walkersville, Ma.) supplemented with 8% chelexed fetal calf serum and 1% antibiotic-antimycotic (Gibco BRL) and the addition of CaCl2 to 0.05 mM Ca^++. […] (St. Louis, Mo.), and TPA was supplied by L. C. Services (Woburn, Ma.). L-[^14C]ornithine ([…]) was from Amersham/Searle Corp. (Arlington Heights, Ill.). Chemical solvents used in all assays of biological activity were of the highest grade commercially available. Growth Inhibition. […] A mitochondrial dehydrogenase reduces MTT to a blue formazan product with an absorbance maximum of 505 nm in DMSO; the number of viable cells can thus be determined spectrophotometrically. PE cells were seeded at a density of 5,000 cells/well in 50 μL of medium into 96-well microtiter plates. […] The plates were fed once at 48 h, with the readdition of the vitamin D3 analogs at this time. […] After 4 h, the MTT was removed and DMSO added to dissolve the blue formazan dye. Using a microtiter plate reader, the […] was then determined and cell number calculated from blank-subtracted absorbance values.

MOLT-4 = test: NCI 60 cell line screen (SRB), Leukemia
HS 578T = test: NCI 60 cell line screen (SRB), Breast Cancer; conditions: HS 578T (Breast Cancer)
NCI-H460 = test: NCI 60 cell line screen (SRB), Non-Small Cell Lung Cancer
MCF7 = test: NCI 60 cell line screen (SRB), Breast Cancer
SK-MEL-2 = test: NCI 60 cell line screen (SRB), Melanoma; conditions: SK-MEL-2 (Melanoma)
KM12 = test: NCI 60 cell line screen (SRB), Colon Cancer
[2] = MOLT-4 (Leukemia), listed as Metaphtalate Dimer
[3] = MOLT-4 (Leukemia), listed as metaphthalate dimer

SMILES: COC1OC2(C)CCC3CCCC(CCOC(=O)c4cccc(C(=O)OCCC5CCCC6CCC7(C)OOC56C(OC)O7)c4)C31OO2 (stereo not shown) [Compound 10, Trioxane Bis-ester Dimer]
- Log10GI50 (SR): <−8.30 M
- Log10LC50 (SR): >−4.30 M
- Log10TGI (SR): −7.49 M
- Log10GI50 (BT-549): −5.47 M
- Log10LC50 (BT-549): >−4.30 M
- Log10TGI (BT-549): >−4.30 M
- Log10GI50 (COLO 205): −6.45 M
- Log10LC50 (COLO 205): −4.48 M
- Log10TGI (COLO 205): −5.18 M
- Log10GI50 (SNB-19): >−4.30 M
- Log10LC50 (SNB-19): >−4.30 M
- Log10TGI (SNB-19): >−4.30 M
- Log10GI50 (HCT-116): −6.43 M
- Log10LC50 (HCT-116): >−4.30 M
- Log10TGI (HCT-116): >−4.30 M
- Log10GI50 (OVCAR-4): >−4.0 M
- Log10LC50 (OVCAR-4): >−4.30 M
- Log10TGI (OVCAR-4): >−4.30 M
- Log10GI50 (K-562): −6.79 M
- Log10LC50 (K-562): >−4.30 M
- Log10TGI (K-562): −5.35 M
- Log10GI50 (HT29): −6.35 M
- Log10LC50 (HT29): >−4.30 M
- Log10TGI (HT29): >−4.30 M
- Log10GI50 (EKVX): −5.31 M
- Log10LC50 (EKVX): >−4.30 M
- Log10TGI (EKVX): >−4.30 M
- Log10GI50 (SN12C): −5.73 M
- Log10LC50 (SN12C): >−4.30 M
- Log10TGI (SN12C): >−4.30 M
- Log10GI50 (SK-MEL-5): −5.57 M
- Log10LC50 (SK-MEL-5): >−4.30 M
- Log10TGI (SK-MEL-5): >−4.30 M
- Log10GI50 (786-0): −5.57 M
- Log10LC50 (786-0): >−4.30 M
- Log10TGI (786-0): >−4.30 M
- Log10GI50 (NCI-H322M): >−4.30 M
- Log10LC50 (NCI-H322M): >−4.30 M
- Log10TGI (NCI-H322M): >−4.0 M
- Log10GI50 (SF-268): −5.36 M
- Log10LC50 (SF-268): >−4.30 M
- Log10TGI (SF-268): >−4.30 M
- Log10GI50 (SF-295): −5.01 M
- Log10LC50 (SF-295): >−4.30 M
- Log10TGI (SF-295): >−4.30 M
- Log10GI50 (SW-620): −6.47 M
- Log10LC50 (SW-620): >−4.30 M
- Log10TGI (SW-620): >−4.30 M
- Log10GI50 (NCI-H522): −6.13 M
- Log10LC50 (NCI-H522): >−4.30 M
- Log10TGI (NCI-H522): >−4.30 M
- Log10GI50 (PC-3): −7.09 M
- Log10LC50 (PC-3): >−4.30 M
- Log10TGI (PC-3): >−4.30 M
- Log10GI50 (MDA-MB-435): −5.93 M
- Log10LC50 (MDA-MB-435): >−4.30 M
- Log10TGI (MDA-MB-435): >−4.30 M
- Log10GI50 (HCC-2998): −5.32 M
- Log10LC50 (HCC-2998): >−4.30 M
- Log10TGI (HCC-2998): >−4.30 M
- antiproliferative activity [1]: high antiproliferative activity
- Log10GI50 (MOLT-4; MOLT-4 (Leukemia)): −7.68 M
- Log10LC50 (MOLT-4; [2]): >−4.30 M
- Log10TGI (MOLT-4; [2]): −6.53 M
- Log10LC50 (MOLT-4; [3]): −4.05 M
- Log10TGI (MOLT-4; [3]): −5.80 M
- drug concentration necessary to achieve primary growth inhibition (percentage growth +50) (MOLT-4; MOLT-4, read from dose response curves FIGS. 10a-10e): less than 10^−7 molar
- Log10GI50 (HS 578T): −6.07 M
- Log10LC50 (HS 578T): >−4.30 M
- Log10TGI (HS 578T): >−4.30 M
- Log10GI50 (NCI-H460): −5.76 M
- Log10LC50 (NCI-H460): >−4.30 M
- Log10TGI (NCI-H460): >−4.30 M
- Log10GI50 (MCF7): −5.92 M
- Log10LC50 (MCF7): >−4.30 M
- Log10TGI (MCF7): >−4.30 M
- Log10GI50 (SK-MEL-2): −5.47 M
- Log10LC50 (SK-MEL-2): >−4.30 M
- Log10TGI (SK-MEL-2): >−4.30 M
- Log10GI50 (KM12): −5.97 M
- Log10LC50 (KM12): >−4.30 M
- Log10TGI (KM12): >−4.30 M
